Test results published in PMC8700777, “Identification of the EdcR Estrogen-Dependent Repressor in Caenibius tardaugens NBRC 16725: Construction of a Cellular Estradiol Biosensor” (Genes, 2021).
pEC50: −log10 of the molar value.

Key:
[1] = test system: EdcR (TetR-like repressor, EGO55_13520); test: EdcR-dependent Pb-msf-gfp reporter de-repression in E. coli DH10B (with RT-PCR in C. tardaugens ΔedcA); assay type: cell-based, Escherichia coli DH10B
[2] = test system: EdcR (TetR-like repressor, EGO55_13520); test: EdcR-dependent Pb-msf-gfp reporter de-repression in E. coli DH10B; assay type: cell-based, Escherichia coli DH10B

| SMILES | pEC50 [1] | pEC50 [2] |
| --- | --- | --- |
| C[C@]12CC[C@@H]3c4ccc(O)cc4CC[C@H]3[C@@H]1CCC2=O [E1, estrone] | 5.86 | – |
| C[C@]12CC[C@@H]3c4ccc(O)cc4CC[C@H]3[C@@H]1CC[C@@H]2O [E2, 17β-estradiol] | – | 5.48 |
